How the values were obtained:
human hepatocytes [1] = conditions: cited from earlier work
[2] = Semimechanistic PBPK model simulation in simulated healthy volunteers; design: species or system human
From the text: Uptake is inhibited by the opposing drug in X 3 via the respective uptake concentration at half of the maximum uptake velocity (K m.up.X) shown as the inhibition constant (K I.up). Passive movement of drug into and out of the liver is through clearances P dif.X and P def.X, respectively. Both drugs are cleared through biliary excretion (CLbi.X) into the gallbladder (X 5), and into X 2 where they can be reabsorbed.
The micro‐rate constants for transporter‐mediated uptake and passive uptake were scaled to macro‐rate constants (see Table 2 ) and then empirically scaled up to the human body (83 kg, healthy adult; ^23 see Table 2 ).
The ODE PBPK model (see Figure 1 for schematic and Supplemental Material for the set of ODEs) was developed using desolve ^27 in R‐studio (v1.1.463, R‐Studio Inc., Boston, MA) running R‐project version 3.6.0 ^28 and was similar to that used for eltrombopag and rosuvastatin. ^5 All figures in this article were generated either within Inkscape (0.93, Inkscape.org, Boston, MA) or cowplot, ggplot2, ^29 , ^30 extrafont, ^31 and Cairo. ^32

OATP1B1 and OATP1B3 = conditions: OATP1B1 and OATP1B3, in vitro; cited from earlier work
[3] = Plasma protein binding and blood:plasma ratio (literature); type: in vitro ADME; conditions: blood; fu.pl.P/Bl:Pl, Eq. 15, from literature values 3, 24
[4] = Fraction unbound in hepatocytes, Rapid Equilibrium Dialysis (RED) device; type: in vitro ADME; conditions: human, heat inactivated hepatocytes
Experimental: Fraction Unbound in Hepatocytes. The estimation of the fraction unbound in hepatocytes at equilibrium can be obtained using multiple techniques: heat inactivated hepatocytes (3); linear regression obtained using the logD7.4 (4); parameter estimation (1, 3, 5, 6) or as separate binding rate constants determined experimentally (7). […] The RED device works with low volumes across a medium chamber (500 µL, white) and incubation chamber containing the hepatocytes (300 µL, red), and as such has been reported to even out the non-specific binding (NSB) between the membrane and wells, thereby improving recovery (8). The free fraction in the incubation (fu.inc) is calculated as:
fu.inc= [medium chamber] Whiteincubation chamber(Red) . (Eq.S1)
The amount of non-specific binding (NSB) to the labware is important to understand the recovery from the RED device experiment to evaluate the reliability of fu.inc: […]

[5] = cited from earlier work
[6] = Uptake of pitavastatin and eltrombopag in cryopreserved human hepatocytes (oil spin method), comeasurement, micro‐rate constant mechanistic model; type: in vitro ADME; conditions: human; model 1; conditional mode (minimum‐maximum) for 1 × 10^6 cells
Experimental: (§1) Human hepatocytes were obtained from BioIVT (Brussels, Belgium; lot number: LYB; 10 donor LiverPool (8 Caucasians, 1 African American, and 1 Hispanic) and thawed according to supplier guidelines in Leibovitz L15 medium. Hepatocytes were kept on ice prior to use and were used within 3 hours of defrosting.
(§2) Cells were separated using an oil spin method similar to the literature. ^11 , ^17 After separation, the tubes were frozen on dry ice and the bottom layer was cut off.
(§3) A dilution factor of 100 was used to scale from pmol/mL/1 × 10^5 cells to nmol/mL/1 × 10^6 cells.
(§4) Passive rate constants for movement into and out of the cell (k f.X and k bX, respectively) as well as uptake transporter‐mediated rate constants for association to the transporter (k aX) and dissociation (k dX) and translocation (k tX) from the transporter into the medium and cell, respectively. […] The sets of ODEs for all the models (models 1–4; Table 1 ) tested for structural identifiability and used for parameter estimation are included in the Supplemental Material .
(§5) Parameter estimation was conducted within Monolix 2018 R2 (Lixoft, Antony, France) for each concentration and experiment as an individual data set, where to ensure positivity, a log‐normal distribution was assumed for each parameter, with a proportional residual error model for the observations.
(§6) Hepatocyte Incubations. […] Eltrombopag was dissolved in DMSO to give 30 µmol/mL, then diluted 333-fold to 90 nmol/mL in Leibovitz L15 medium. […] Briefly, 0.5 mL microtubes (12049877, Thermo-Fisher Scientific, Gothenburg, Sweden) layered with 15 µL of 4 % cesium chloride onto which 140 µL of 8:2 silicone oil: mineral oil, with oil red O was added. Samples were taken by transferring 100 µL of hepatocyte suspension into the microtube and spun for 15 s in a Minispin centrifuge (Eppendorf, Horsholm, Denmark), during which time the hepatocytes passed through the oil into the cesium chloride bottom layer. The tubes were then frozen on dry ice and the bottom layer cut off once frozen into a 1 mL deep well plate (260252, Thermo-Fisher Scientific, Gothenburg, Sweden).
(§7) Sample Extraction. 50 µL of water suitable for UPLC (MilliQ ELGA water, Merck-Millipore, Solna, Sweden) and 150 µL of stop solution (50:50 MeOH:MeCN, containing 0.8 % formic acid and 4 pmol/mL 5,5-diethyl-1,3-diphenyl-2-iminobarbituric acid as internal standard) were added to the frozen samples of the cut-off tube bottoms. Samples were mixed on a plate shaker for 1 h and then stored at – 80 °C overnight. Prior to analysis, samples were defrosted and mixed for 30 min before centrifugation of the plates at 4000 g for 20 min at 4 °C. Samples were transferred to a conical bottomed 96 well plate for analysis (249944, Thermo-Fisher Scientific, Gothenburg, Sweden) and diluted 1:1 with MilliQ ELGA water.
(§8) Mechanistic Modeling. […] An estimate for the total amount of transporters (To) can be obtained during the mechanistic modeling process (9, 10), and therefore Tf can be replaced using the conservation law during parameter estimation:
(§9) Parameter estimation for all model were conducted within the Monolix suite 2018 R2 (Lixoft, Antony, France) where to ensure positivity, a log-normal distribution was assumed for each parameter in the candidate models, together with a proportional residual error model for the observations.

human hepatocytes [7] = test: as above; type: in vitro ADME
Experimental: as §1, §2, §3, §4, §5, §6, §7, §8, §9

[8] = Static R value for clinical TrDDI (FDA guidance); design: species or system human; conditions: for R value, static model: eltrombopag perpetrator (75 mg), pitavastatin victim, Eq. 2, FDA cut‐off 1.1
[9] = human hepatocytes over 70 seconds
[10] = model 1, conditional mode (minimum‐maximum) for 1 × 10^6 cells
[11] = model 1 micro‐rate constants, conditional mode (minimum‐maximum) for 1 × 10^6 cells

Compound: O=C(O)C[C@H](O)C[C@H](O)/C=C/c1c(C2CC2)nc2ccccc2c1-c1ccc(F)cc1 [pitavastatin, pitavastatin calcium]
- K m.up.P (literature) (human hepatocytes [1]): 1.4 to 2 µM
- P dif.P (literature) (human hepatocytes [1]): 0.4–13 µL/min/1 × 10^6 cells
- V max.up.P (literature) (human hepatocytes [1]): 65–354 pmol/min/1 × 10^6 cells
- k aP (literature) (human hepatocytes [1]; [9]): 7.4 (51%) /nmol/min/1 × 10^6 cells
- k dP (literature) (human hepatocytes [1]; [9]): 6.3 /min/1 × 10^6 cells
- k tP (literature) (human hepatocytes [1]; [9]): 4.3 (85%) /min/1 × 10^6 cells
- P def.P (literature, micro‐rate constants) (human hepatocytes [1]; ref Grandjean et al. 11): 0.89 (27%) µL/min/1 × 10^6 cells
- CLmet.X, metabolic clearance ([2]; PBPK model value, Eqs. 10 and 11): 93 mL/min/liver
- CLbi.X, biliary clearance ([2]; PBPK model value, Eqs. 12 and 13): 165 mL/min/liver
- clearance ([2]; human, plasma and urine, PBPK model value, Eq. 14): 12 mL/min
- K a.X, first‐order absorption rate constant ([2]; pitavastatin, from mean residence time PO and IV, Eq. 5): 0.07 min⁻¹
- fraction transported (OATP1B1 and OATP1B3): 0.78
- fraction unbound [3]: 0.009
- fraction unbound ([4]; RED device, overnight, pitavastatin 0.3, 10 and 100 nmol/ml, eltrombopag 30 nmol/ml, read-out: f u.inc, fraction unbound in the incubation): 0.9
- fraction unbound ([4]; pitavastatin, estimated from RED f u.inc, Eq. 16, read-out: f u.L.X, fraction unbound in the liver): 0.026
- recovery ([4]; RED device, read-out: analytical recovery): 55%
- biliary elimination of pitavastatin [5]: 53%
- AUC0−∞ (literature) ([5]; pitavastatin only, oral 1 mg, converted to blood concentration, mean ± SD): 68 ± 49 ng·h/mL
- Cmax ([5]; pitavastatin only, oral 1 mg, healthy volunteers, converted to blood concentration, mean ± SD): 38.8 ± 21.9 ng/mL
- tmax (h) ([5]; pitavastatin only, oral 1 mg, healthy volunteers): 1 (0.5–1) h
- V c.X, volume of the central compartment ([5]; pitavastatin, total blood volume): 5820. Total blood volume [ ^23 ] mL
- k el [6]: 0.00367 s⁻¹
- F T.X, fraction transported (human hepatocytes [7]; CLup.X/(CLup.X+Pdif.X), Eq. 4): 0.96 (0.94–0.98)
- effect of pitavastatin on cellular eltrombopag (human hepatocytes [7]; experimental data, except at a pitavastatin incubation of 30–100 nmol/mL): No effect
- K m.up.X or K I.up.X (human hepatocytes [7]; from micro‐rate constants, Eq. 7): 9,525 ng/mL
- P def.X (human hepatocytes [7]; k bX scaled to a clearance): 0.62 (0.55‐0.67) µL/min/1 × 10^6 cells
- P dif.X (human hepatocytes [7]; k fX scaled to a clearance): 0.55 (0.46–0.61) µL/min/1 × 10^6 cells
- k bX, passive rate constant out of the cell (human hepatocytes [7]; [10]): 0.21 (0.18–0.22) /min
- k fX, passive rate constant into the cell (human hepatocytes [7]; [10]): 5.5 × 10^−4 (4.6 × 10^−4–6.1 × 10^−4) /min
- k aX, transporter association rate constant (human hepatocytes [7]; [11]): 0.17 (0.14–0.25) /nmol/min
- k dX, transporter dissociation rate constant (human hepatocytes [7]; [11]): 2.2 (1.97–2.37) /min
- k tX, transporter translocation rate constant (human hepatocytes [7]; [11]): 1.65 (1.57–1.74) /min
- V max.up..X, maximum uptake velocity (human hepatocytes [7]; scaled to whole liver, Eq. 6): 3.0 × 10^7 ng/min/liver
- P dif.X, passive diffusion into the cell (human hepatocytes [7]; scaled to whole liver, Eq. 8): 118 mL/min/liver
- P def.X, passive diffusion out of the cell (human hepatocytes [7]; scaled to whole liver, Eq. 9): 104 mL/min/liver
- V max.up (human hepatocytes [7]; transporter rate constants transformed, Eq. 6): 302 (177–639) pmol/min/1 × 10^6 cells
- K m.up (human hepatocytes [7]; transporter rate constants transformed, Eq. 7): 22.1 (16.7–25.5) nmol/mL
- R value, static model [8]: 1.07
- R value, static model ([8]; listed as Pitavastatin): 1.06–1.07
- estimated I in.max ([8]; pitavastatin as perpetrator, clinical dose 1–4 mg): 0.5 to 3 nmol/mL

From paper PMC7179958 (CPT: Pharmacometrics & Systems Pharmacology, 2020)
